Like-named read-outs stand apart in the source and are kept apart here.
Columns and labels:
[1] = target: T1, human recombinant AT2 receptor (Homo sapiens, UniProt P50052); test: biochemical
T1 sequence (P50052 1-363): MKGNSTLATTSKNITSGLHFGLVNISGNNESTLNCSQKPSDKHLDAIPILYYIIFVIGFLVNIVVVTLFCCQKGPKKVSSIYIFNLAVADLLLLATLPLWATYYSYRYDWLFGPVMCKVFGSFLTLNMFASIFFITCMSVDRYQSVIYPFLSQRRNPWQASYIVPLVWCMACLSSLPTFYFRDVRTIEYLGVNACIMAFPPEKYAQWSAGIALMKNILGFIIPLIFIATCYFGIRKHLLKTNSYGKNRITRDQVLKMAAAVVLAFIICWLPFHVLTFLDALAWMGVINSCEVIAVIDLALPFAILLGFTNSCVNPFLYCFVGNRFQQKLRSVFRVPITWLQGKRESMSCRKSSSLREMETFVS
Protocol: (§3) Compounds were evaluated for binding to the human recombinant AT2 and AT1 receptor according to Eurofins protocol ITEM26 and ITEM24 using a radiometric scintillation assay.

[2] = target: T2, human recombinant AT1 receptor (Homo sapiens, UniProt P30556); test: biochemical
T2 sequence (P30556 1-359): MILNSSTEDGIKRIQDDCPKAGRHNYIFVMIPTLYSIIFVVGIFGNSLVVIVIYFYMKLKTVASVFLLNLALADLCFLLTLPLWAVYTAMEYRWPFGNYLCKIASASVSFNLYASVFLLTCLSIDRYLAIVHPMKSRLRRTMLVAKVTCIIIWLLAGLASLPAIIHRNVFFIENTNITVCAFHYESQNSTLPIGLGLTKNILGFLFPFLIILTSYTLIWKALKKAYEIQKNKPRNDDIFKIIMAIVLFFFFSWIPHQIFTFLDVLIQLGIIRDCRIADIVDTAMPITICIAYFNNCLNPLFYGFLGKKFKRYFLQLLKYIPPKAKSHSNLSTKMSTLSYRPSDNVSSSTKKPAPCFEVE
Protocol: as §3

[3] = target: CYP2C9 (Homo sapiens, UniProt P11712); test: CYP inhibition of C21 found during development; format: in vitro ADME; details: statement in words
[4] = target: T3, CYP2C8 (Homo sapiens, UniProt P10632); test: CYP inhibition in human liver microsomes (Eurofins protocol ITEMG232); format: in vitro ADME; details: 10 μM, substrates paclitaxel and amodiaquine
T3 construct: using isoform-specific substrates incubated with human liver microsomes; tissue Eurofins ITEMG232; host or cells: human liver microsomes
T3 sequence (P10632 1-490): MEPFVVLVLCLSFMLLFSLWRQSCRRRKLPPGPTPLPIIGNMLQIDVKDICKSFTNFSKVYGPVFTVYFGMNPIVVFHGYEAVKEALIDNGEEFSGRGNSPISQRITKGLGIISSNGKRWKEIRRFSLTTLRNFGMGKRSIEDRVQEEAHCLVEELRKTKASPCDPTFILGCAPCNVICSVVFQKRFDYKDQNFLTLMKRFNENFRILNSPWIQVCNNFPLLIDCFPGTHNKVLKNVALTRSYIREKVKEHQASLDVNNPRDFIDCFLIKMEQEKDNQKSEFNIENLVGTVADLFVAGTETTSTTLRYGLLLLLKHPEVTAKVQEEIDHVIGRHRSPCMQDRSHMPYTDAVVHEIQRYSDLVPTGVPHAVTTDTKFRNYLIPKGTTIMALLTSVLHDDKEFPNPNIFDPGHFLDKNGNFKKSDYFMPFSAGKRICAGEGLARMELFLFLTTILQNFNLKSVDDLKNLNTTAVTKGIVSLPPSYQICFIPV
Protocol: (§1) The following substrates were used; CYP1A phenacetin, CYP2B6 bupropion, CYP2C8 paclitaxel and amodiaquine, CYP2C9 diclofenac, CYP2C19 omeprazole, CYP2D6 dextromethorphan, CYP3A midazolam and testosterone.
(§2) At the end of the incubation, the formation of metabolite was monitored by HPLC-MS/MS as the peak area response.

[5] = target: T4, CYP2D6 (Homo sapiens, UniProt P10635); test: as above; format: in vitro ADME; details: 10 μM, substrate dextromethorphan
T4 construct: tissue Eurofins ITEMG232; host or cells: human liver microsomes
Protocol: as §1, §2

[6] = target: T5, CYP1A (Homo sapiens, UniProt P05177); test: as above; format: in vitro ADME; details: 10 μM, substrate phenacetin
T5 construct: using isoform-specific substrates incubated with human liver microsomes; tissue Eurofins ITEMG232; host or cells: human liver microsomes
T5 sequence (P05177 2-516 limits assumed): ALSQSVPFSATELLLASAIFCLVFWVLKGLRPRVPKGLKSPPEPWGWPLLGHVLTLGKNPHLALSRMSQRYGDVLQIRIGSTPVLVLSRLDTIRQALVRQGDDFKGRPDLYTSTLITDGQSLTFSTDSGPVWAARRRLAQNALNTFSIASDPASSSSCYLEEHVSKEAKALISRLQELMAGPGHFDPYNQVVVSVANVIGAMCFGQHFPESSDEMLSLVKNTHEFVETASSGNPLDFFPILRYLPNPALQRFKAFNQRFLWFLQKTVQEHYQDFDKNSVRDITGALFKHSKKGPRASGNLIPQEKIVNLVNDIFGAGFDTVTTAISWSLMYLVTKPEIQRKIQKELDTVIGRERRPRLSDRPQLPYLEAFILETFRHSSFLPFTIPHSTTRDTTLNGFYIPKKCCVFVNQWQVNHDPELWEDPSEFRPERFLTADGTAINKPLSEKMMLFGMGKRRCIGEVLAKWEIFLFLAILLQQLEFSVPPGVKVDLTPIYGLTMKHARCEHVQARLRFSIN
Protocol: as §1, §2

[7] = target: T6, CYP2B6 (Homo sapiens, UniProt P20813); test: as above; format: in vitro ADME; details: 10 μM, substrate bupropion
T6 construct: using isoform-specific substrates incubated with human liver microsomes; tissue Eurofins ITEMG232; host or cells: human liver microsomes
T6 sequence (P20813 1-491): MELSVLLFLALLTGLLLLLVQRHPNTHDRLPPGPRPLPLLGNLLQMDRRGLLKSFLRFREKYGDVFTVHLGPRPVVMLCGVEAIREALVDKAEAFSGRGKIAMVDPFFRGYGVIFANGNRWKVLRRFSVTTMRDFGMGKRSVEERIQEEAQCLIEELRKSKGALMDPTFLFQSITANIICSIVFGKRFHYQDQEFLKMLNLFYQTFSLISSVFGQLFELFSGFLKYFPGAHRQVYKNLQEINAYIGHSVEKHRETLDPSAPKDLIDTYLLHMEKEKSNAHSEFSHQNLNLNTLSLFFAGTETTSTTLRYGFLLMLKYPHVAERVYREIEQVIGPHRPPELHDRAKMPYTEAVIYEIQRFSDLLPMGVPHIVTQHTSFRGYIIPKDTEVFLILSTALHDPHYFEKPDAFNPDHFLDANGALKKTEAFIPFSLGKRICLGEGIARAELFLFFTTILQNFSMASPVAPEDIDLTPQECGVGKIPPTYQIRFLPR
Protocol: as §1, §2

[8] = tested on: CYP3A4&5; test: CYP inhibition in human liver microsomes (Eurofins protocol ITEMG232), testosterone substrate; format: in vitro ADME; details: probe testosterone, read-out: CYP3A4&5 testosterone Inh %
Protocol: as §1, §2

[9] = target: T7, CYP3A4 (Homo sapiens, UniProt P08684); test: CYP inhibition of C21 found during development; format: in vitro ADME; details: statement in words
[10] = target: T7, CYP3A4; test: CYP inhibition in human liver microsomes (Eurofins protocol ITEMG232), midazolam substrate; format: in vitro ADME; parameters: using isoform-specific substrates incubated with human liver microsomes; tissue Eurofins ITEMG232; host or cells: human liver microsomes; details: 10 μM
Protocol: as §1, §2

[11] = Metabolic hydrolysis of C21 found during development; format: in vitro ADME; details: statement in words
[12] = Metabolic stability in pooled human liver microsomes with or without NADPH; format: in vitro ADME; details: human, pooled human liver microsomes, pooled human liver microsomes 0.5 mg/mL in PBS, 1 uM test compound, 37° C.
Protocol: Pooled human liver microsomes in PBS at a concentration of 0.5 mg/mL was incubated with or without 1 mM NADPH for 70 min at 37° C. Test compound was added after 10 minutes to a final concentration of 1 uM. Samples were withdrawn at 0, 5, 15 and 60 minutes and added to test tubes containing acetonitrile, to stop the reaction, and with terfenadine, used as internal standard. After centrifugation at 10000×g for 5 minutes the supernatant was diluted 1:1 with 1% formic acid. Samples were separated on a reverse phase column and detected by triple quadrupole MSMS (Agilant model 6540). The concentration of the parent compound at the different time points was measured with an external standard curve using terfenadine as internal standard and the initial metabolic rate in the presence or absence of NADPH calculated.

T7 sequence (P08684 whole entry, canonical isoform): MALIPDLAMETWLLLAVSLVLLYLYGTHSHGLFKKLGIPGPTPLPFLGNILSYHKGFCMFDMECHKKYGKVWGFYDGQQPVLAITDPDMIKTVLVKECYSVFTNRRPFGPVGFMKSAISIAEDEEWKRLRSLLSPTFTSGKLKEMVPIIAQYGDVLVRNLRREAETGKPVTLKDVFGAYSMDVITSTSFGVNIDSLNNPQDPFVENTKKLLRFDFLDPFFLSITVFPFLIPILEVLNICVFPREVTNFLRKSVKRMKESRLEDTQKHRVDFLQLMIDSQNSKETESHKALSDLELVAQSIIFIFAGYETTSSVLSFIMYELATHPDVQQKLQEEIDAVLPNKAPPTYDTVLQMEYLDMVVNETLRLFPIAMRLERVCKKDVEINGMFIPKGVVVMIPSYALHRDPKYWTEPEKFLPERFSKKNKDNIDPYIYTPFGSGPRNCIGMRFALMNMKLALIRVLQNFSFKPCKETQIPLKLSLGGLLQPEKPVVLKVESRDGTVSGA
Chain of CYP2C9 (P11712 whole entry): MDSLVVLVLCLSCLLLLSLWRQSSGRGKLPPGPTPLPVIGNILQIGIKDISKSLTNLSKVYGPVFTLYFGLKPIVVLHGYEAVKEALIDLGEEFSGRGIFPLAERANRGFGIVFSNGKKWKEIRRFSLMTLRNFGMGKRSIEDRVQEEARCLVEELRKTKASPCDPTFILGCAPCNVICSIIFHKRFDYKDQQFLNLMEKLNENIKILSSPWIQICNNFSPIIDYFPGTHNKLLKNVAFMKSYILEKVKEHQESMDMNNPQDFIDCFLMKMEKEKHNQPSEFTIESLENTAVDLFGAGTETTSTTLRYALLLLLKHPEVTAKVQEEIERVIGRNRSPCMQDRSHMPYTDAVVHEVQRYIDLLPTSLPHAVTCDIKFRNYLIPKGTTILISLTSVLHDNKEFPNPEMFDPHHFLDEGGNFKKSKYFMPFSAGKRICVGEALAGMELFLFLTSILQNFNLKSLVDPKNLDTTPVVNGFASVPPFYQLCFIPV
T4 sequence (P10635 whole entry): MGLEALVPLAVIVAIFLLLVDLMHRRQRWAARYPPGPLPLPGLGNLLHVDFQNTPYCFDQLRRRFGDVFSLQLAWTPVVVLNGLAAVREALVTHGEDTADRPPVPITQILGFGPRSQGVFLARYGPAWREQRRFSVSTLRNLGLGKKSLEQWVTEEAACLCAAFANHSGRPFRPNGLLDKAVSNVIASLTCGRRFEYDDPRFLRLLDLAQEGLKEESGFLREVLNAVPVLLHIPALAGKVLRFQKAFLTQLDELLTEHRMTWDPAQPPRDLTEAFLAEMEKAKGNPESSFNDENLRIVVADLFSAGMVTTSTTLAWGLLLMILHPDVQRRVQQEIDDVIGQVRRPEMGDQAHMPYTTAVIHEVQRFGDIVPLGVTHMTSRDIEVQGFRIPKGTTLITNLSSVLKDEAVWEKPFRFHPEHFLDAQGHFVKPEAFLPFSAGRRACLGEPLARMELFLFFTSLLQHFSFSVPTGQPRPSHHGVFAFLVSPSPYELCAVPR

SMILES | IC50 [1] | IC50 [2] | inhibition of CYP 2C9 [3] | CYP2C8 Inh % [4] | CYP2D6 Inh % [5] | CYP1A Inh % [6] | CYP2B6 Inh % [7] | inhibition at 10 µM [8] | inhibition of CYP 3A4 [9] | CYP3A4 midazolam Inh % [10] | hydrolysis to an inactive sulfonamide metabolite [11] | half-life at 1 uM ([12]; with 1 mM NADPH, read-out: T1/2, +NaDPH) | half-life at 1 uM ([12]; without NADPH, read-out: T1/2, no NaDPH)
Cc1nccn1Cc1ccc(-c2cc(CC(C)C)sc2S(=O)(=O)NC(=O)OCCOc2ccccc2)cc1F [Example 9, 2-Phenoxyethyl (3-(3-fluoro-4-((2-methylimidazol-1-yl)methyl]phenyl)-5-isobutyl-2-thienyl)sulfonylcarbamate] | 3.4 nM | > 1000 nM | – | – | – | – | – | – | – | – | – | – | –
CCCCOC(=O)NS(=O)(=O)c1sc(CC(C)C)cc1-c1ccc(Cn2ccnc2)cc1 [Example C21, N-butyloxycarbonyl-3-(4-imidazol-1-ylmethylphenyl)-5-isobutylthiophene-2-sulfon-amide, reference compound] | – | – | potent inhibitor | 80% | 81% | 91% | 49% | 94% | potent inhibitor | 95% | rapidly hydrolysed | 35 min | 31 min

Source: patent US20230348444A1, “NOVEL COMPOUNDS FOR USE IN THE TREATMENT OF DISEASES ASSOCIATED WITH ANGIOTENSIN II” (Vicore Pharma AB, priority 2020, published 2023)
